Patent US20140284278A1, “CATIONIC DISPLACER MOLECULES FOR HYDROPHOBIC DISPLACEMENT CHROMATOGRAPHY” (SACHEM, INC., priority 2011, published 2014)
Values after ≈ are worked out from the molar mass of the structure shown.

Assays:
[1] = amine pH-buffers with low pKa values; cited from earlier work
[2] = Partitioning in two-phase diethyl ether-water extraction; assay type: physicochemical
Method: This is a modification of Method A based on the partitioning behavior in a two-phase diethyl ether-water extraction. […] 53.4 g Purified and recrystallized N-(4-fluorobenzyl)-N-decylpyrrolidinium chloride (150 mmole, fw=355.97) is placed in a 250 mL separatory funnel followed by 53.4 g degassed, deionized water. The flask is shaken until a clear, viscous solution is formed (˜1.5 M solution). 25.6 g Trifluoroacetic (225 mmole, fw=114.02) is added to the mixture which is vigorously mixed. Immediately two phases form with the product in the lower layer. 110 mL peroxide-free diether ether is added to the separatory funnel and the mixture is vigorously mixed again. After 2 hours, the phases fully separate with the product in the upper ether phase. The lower phase is discarded and the upper is retained. 55 mL 1% trifluoroacetic acid in distilled water is added, the mixture is vigorously mixed and phases are again allowed to separate. Again, the upper phase is retained, dried over anhydrous magnesium sulfate, filtered and placed on a rotary evaporator in order to remove the ether along with residual HCl, trifluoroacetic acid and water. This procedure yields 59.2 g (91%) of a pure, clear, viscous oil (ionic liquid). This material is suitable for use as a displacer. HPLC purity of the quat cation is essentially identical to the starting material. […]

[3] = Hygroscopicity of crystalline salt in air; assay type: physicochemical; settings: crystalline substance, absorbs moisture from the air
Method: 380.5 g Purified N-decylpyrrolidine (1.8 mole, fw=211.39) is added to 720 mL stirring acetonitrile in a 2 L, 4-neck round-bottom flask that is equipped with a heating mantle, mechanical stirrer, 500 mL addition funnel, reflux condensor and teflon-coated thermocouple. The reaction is carried out under a nitrogen atmosphere with a slow N2 purge. The stirring mixture is heated to 50° C., and 289.1 g freshly distilled 4-fluorobenzyl chloride (2.0 mole, fw=144.58) is added in a dropwise fashion over a period of about 60 minutes. The reaction mixture is then heated to about 80° C. for 8-12 hours and periodically monitored by HPLC (Method 10a) in order to ensure that the starting amine is entirely consumed. The reaction mixture is cooled to room temperature, filtered through sintered-glass and placed on a rotary evaporator to remove the solvent (acetonitrile). 1.0 L Methyl t-butyl ether (MTBE) is added portionwise with mechanical stirring to the sticky orange-yellow reaction residue. Once this mixture is fully suspended in the solvent, it is transferred to a clean 4 L Erlenmeyer flask, and an additional amount of MTBE (1.9 L) is slowly added with stirring. […] A sharp melting point in a glass capillary is measured at 137-138° C. when measured between 90-140° C. at the heating rate of 1.0° C./minute. […]

Solubility in water = settings: pure water
[4] = cited from earlier work

CN(C)CCN(C)C [N,N,N′,N′-tetramethylethylene-diamine]
pKa [1]: 5.9

CCCCCCCCCC[N+]1(Cc2ccc(F)cc2)CCCC1.[Cl-] [N-(4-Fluorobenzyl)-N-decylpyrrolidinium Chloride]
partitioning behavior [2]: strongly partitions into the water layer
hygroscopicity [3]: very hygroscopic
solubility (Solubility in water): 2000 mM

CCCCCCCCCC[N+]1(Cc2ccc(F)cc2)CCCC1.O=C([O-])C(F)(F)F [N-(4-Fluorobenzyl)-N-decylpyrrolidinium Trifluoroacetate]
partitioning behavior [2]: strongly partitions into the ether layer
solubility (Solubility in water): ~120 mM

CCN1CCNCC1 [N-ethylpiperazine]
pKa [1]: 5.0

C1CCCCC1 [cyclohexane]
solubility in water [4]: ~0.01 mM (≈ 0.842 µg/mL)

c1ccc2ccccc2c1 [naphthalene]
solubility in water [4]: 0.2 mM (≈ 25.6 µg/mL)

C1CC[C@H]2CCCC[C@@H]2C1 [trans-decalin]
solubility in water [4]: < 0.001 mM
